Source: PubChem BioAssay (NCI)
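Where inhibition never reached the appropriate level, the endpoint shown equals the highest concentration tested. Otherwise, values were interpolated linearly from a five-concentration, 48-hour dose response in 96-well plates. GI50 marks 50% less growth. TGI: concentration producing complete growth inhibition.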

Columns and labels:
Assay in all cases: NCI tumour cell line growth inhibition, 48 h
[1] = tested on: 786-0 renal
[2] = tested on: A498 renal
[3] = tested on: A549 NSCLC
[4] = tested on: ACHN renal
[5] = tested on: BT-549 breast
[6] = tested on: CAKI-1 renal
[7] = tested on: CCRF-CEM leukemia
[8] = tested on: COLO 205 colon
[9] = tested on: DU-145 prostate
[10] = tested on: EKVX NSCLC
[11] = tested on: HCC-2998 colon
[12] = tested on: HCT-116 colon
[13] = tested on: HCT-15 colon
[14] = tested on: HL-60(TB) leukemia
[15] = tested on: HOP-62 NSCLC
[16] = tested on: HOP-92 NSCLC
[17] = tested on: HS 578T breast
[18] = tested on: HT29 colon
[19] = tested on: IGROV1 ovarian
[20] = tested on: K-562 leukemia
[21] = tested on: KM12 colon
[22] = tested on: LOX IMVI melanoma
[23] = tested on: M14 melanoma
[24] = tested on: MALME-3M melanoma
[25] = tested on: MCF7 breast
[26] = tested on: MDA-MB-231 breast
[27] = tested on: MOLT-4 leukemia
[28] = tested on: NCI-H226 lung
[29] = tested on: NCI-H23 lung
[30] = tested on: NCI-H460 lung
[31] = tested on: NCI/ADR-RES ovarian
[32] = tested on: OVCAR-3 ovarian
[33] = tested on: OVCAR-4 ovarian
[34] = tested on: OVCAR-5 ovarian
[35] = tested on: OVCAR-8 ovarian
[36] = tested on: PC-3 prostate
[37] = tested on: RPMI-8226 leukemia
[38] = tested on: RXF 393 renal
[39] = tested on: SF-268 CNS
[40] = tested on: SF-295 CNS
[41] = tested on: SF-539 CNS
[42] = tested on: SK-MEL-2 melanoma
[43] = tested on: SK-MEL-28 melanoma
[44] = tested on: SK-MEL-5 melanoma
[45] = tested on: SK-OV-3 ovarian
[46] = tested on: SN12C renal
[47] = tested on: SNB-19 CNS
[48] = tested on: SNB-75 CNS
[49] = tested on: SR leukemia
[50] = tested on: SW-620 colon
[51] = tested on: T-47D breast
[52] = tested on: TK-10 renal
[53] = tested on: U251 CNS
[54] = tested on: UACC-257 melanoma
[55] = tested on: UACC-62 melanoma
[56] = tested on: UO-31 renal
[57] = tested on: MDA-MB-435

O=C(NCCCCNC(=O)OCc1ccc2c(Cl)cc(Cl)c(O)c2n1)OCc1ccc2c(Cl)cc(Cl)c(O)c2n1
GI50 [1]: 4.95 µM | TGI [1]: > 100 µM | GI50 [2]: 295 nM | TGI [2]: 5.23 µM | GI50 [3]: 6.33 µM | TGI [3]: > 100 µM | GI50 [4]: 537 nM | TGI [4]: > 100 µM | GI50 [5]: 2.27 µM | TGI [5]: > 100 µM | GI50 [6]: 0.782 µM | TGI [6]: > 100 µM | GI50 [7]: 398 nM | TGI [7]: > 100 µM | GI50 [8]: 24.4 µM | TGI [8]: > 100 µM | GI50 [9]: 0.855 µM | TGI [9]: > 100 µM | GI50 [10]: 10.6 µM | TGI [10]: > 100 µM | GI50 [11]: 3.62 µM | TGI [11]: > 100 µM | GI50 [12]: 0.359 µM | TGI [12]: > 100 µM | GI50 [13]: 890 nM | TGI [13]: > 100 µM | GI50 [14]: 0.499 µM | TGI [14]: 2200 nM | GI50 [15]: 2.61 µM | TGI [15]: > 100 µM | GI50 [16]: 3.86 µM | TGI [16]: > 100 µM | GI50 [17]: 979 nM | TGI [17]: > 100 µM | GI50 [18]: 43.7 µM | TGI [18]: > 100 µM | GI50 [19]: 1220 nM | TGI [19]: > 100 µM | GI50 [20]: 586 nM | TGI [20]: > 100 µM | GI50 [21]: 0.543 µM | TGI [21]: > 100 µM | GI50 [22]: 0.72 µM | TGI [22]: > 100 µM | GI50 [23]: 0.502 µM | TGI [23]: > 100 µM | GI50 [24]: 2.87 µM | TGI [24]: > 100 µM | GI50 [25]: 406 nM | TGI [25]: > 100 µM | GI50 [26]: 0.685 µM | TGI [26]: > 100 µM | GI50 [27]: 0.591 µM | TGI [27]: > 100 µM | GI50 [28]: 24.3 µM | TGI [28]: > 100 µM | GI50 [29]: 1.83 µM | TGI [29]: > 100 µM | GI50 [30]: 0.521 µM | TGI [30]: > 100 µM | GI50 [31]: 0.336 µM | TGI [31]: > 100 µM | GI50 [32]: 0.442 µM | TGI [32]: > 100 µM | GI50 [33]: 4.47 µM | TGI [33]: > 100 µM | GI50 [34]: 47.1 µM | TGI [34]: > 100 µM | GI50 [35]: 458 nM | TGI [35]: > 100 µM | GI50 [36]: 1.64 µM | TGI [36]: > 100 µM | GI50 [37]: 336 nM | TGI [37]: > 100 µM | GI50 [38]: 3.38 µM | TGI [38]: > 100 µM | GI50 [39]: 1.25 µM | TGI [39]: > 100 µM | GI50 [40]: 4.17 µM | TGI [40]: > 100 µM | GI50 [41]: 0.288 µM | TGI [41]: 1400 nM | GI50 [42]: 1940 nM | TGI [42]: > 100 µM | GI50 [43]: 809 nM | TGI [43]: > 100 µM | GI50 [44]: 1.2 µM | TGI [44]: 3.95 µM | GI50 [45]: 5.12 µM | TGI [45]: > 100 µM | GI50 [46]: 0.762 µM | TGI [46]: > 100 µM | GI50 [47]: 4.7 µM | TGI [47]: > 100 µM | GI50 [48]: 1.23 µM | TGI [48]: > 100 µM | GI50 [49]: 0.422 µM | TGI [49]: > 100 µM | GI50 [50]: 486 nM | TGI [50]: > 100 µM | GI50 [51]: 7.61 µM | TGI [51]: > 100 µM | GI50 [52]: 13.8 µM | TGI [52]: > 100 µM | GI50 [53]: 2.84 µM | TGI [53]: > 100 µM | GI50 [54]: 31.4 µM | TGI [54]: > 100 µM | GI50 [55]: 2.21 µM | TGI [55]: 86.7 µM | GI50 [56]: 1.65 µM | TGI [56]: > 100 µM

Cn1ncc2c(Sc3ccc(Cl)cc3)ncnc21
GI50 [1]: 44.1 µM | TGI [1]: > 100 µM | GI50 [3]: 18.8 µM | TGI [3]: > 100 µM | GI50 [4]: > 100000 nM | TGI [4]: > 100 µM | GI50 [5]: 27.3 µM | TGI [5]: > 100 µM | GI50 [6]: 15.4 µM | TGI [6]: > 100 µM | GI50 [7]: 4800 nM | TGI [7]: > 100 µM | GI50 [8]: > 100 µM | TGI [8]: > 100 µM | GI50 [9]: 36.1 µM | TGI [9]: > 100 µM | GI50 [10]: 10.5 µM | TGI [10]: > 100 µM | GI50 [12]: 55.1 µM | TGI [12]: > 100 µM | GI50 [13]: > 100000 nM | TGI [13]: > 100 µM | GI50 [14]: 11.3 µM | TGI [14]: > 100000 nM | GI50 [15]: 28.8 µM | TGI [15]: > 100 µM | GI50 [16]: 3.31 µM | TGI [16]: > 100 µM | GI50 [18]: > 100 µM | TGI [18]: > 100 µM | GI50 [19]: 4360 nM | TGI [19]: 49.8 µM | GI50 [20]: > 100000 nM | TGI [20]: > 100 µM | GI50 [21]: 11.6 µM | TGI [21]: > 100 µM | GI50 [22]: 12 µM | TGI [22]: > 100 µM | GI50 [23]: 93.5 µM | TGI [23]: > 100 µM | GI50 [24]: 57.4 µM | TGI [24]: > 100 µM | GI50 [25]: > 100000 nM | TGI [25]: > 100 µM | GI50 [26]: 13.2 µM | TGI [26]: > 100 µM | GI50 [57]: 22.5 µM | TGI [57]: > 100 µM | GI50 [27]: 10.3 µM | TGI [27]: > 100 µM | GI50 [28]: 36.5 µM | TGI [28]: > 100 µM | GI50 [29]: 15.9 µM | TGI [29]: > 100 µM | GI50 [30]: 21.3 µM | TGI [30]: > 100 µM | GI50 [31]: 21.7 µM | TGI [31]: > 100 µM | GI50 [32]: 36.5 µM | TGI [32]: > 100 µM | GI50 [33]: 36 µM | TGI [33]: > 100 µM | GI50 [34]: > 100 µM | TGI [34]: > 100 µM | GI50 [35]: > 100000 nM | TGI [35]: > 100 µM | GI50 [36]: 7.03 µM | TGI [36]: > 100 µM | GI50 [38]: 98.4 µM | TGI [38]: > 100 µM | GI50 [39]: 7.26 µM | TGI [39]: > 100 µM | GI50 [40]: 9.58 µM | TGI [40]: > 100 µM | GI50 [41]: 68.1 µM | TGI [41]: > 100000 nM | GI50 [42]: > 100000 nM | TGI [42]: > 100 µM | GI50 [43]: > 100000 nM | TGI [43]: > 100 µM | GI50 [44]: 51.5 µM | TGI [44]: > 100 µM | GI50 [45]: 67.9 µM | TGI [45]: > 100 µM | GI50 [46]: 7.37 µM | TGI [46]: > 100 µM | GI50 [47]: 26.9 µM | TGI [47]: > 100 µM | GI50 [48]: 22.9 µM | TGI [48]: > 100 µM | GI50 [49]: 20.6 µM | TGI [49]: > 100 µM | GI50 [50]: > 100000 nM | TGI [50]: > 100 µM | GI50 [51]: 14.4 µM | TGI [51]: > 100 µM | GI50 [52]: > 100 µM | TGI [52]: > 100 µM | GI50 [53]: 16.2 µM | TGI [53]: > 100 µM | GI50 [54]: > 100 µM | TGI [54]: > 100 µM | GI50 [55]: 77.8 µM | TGI [55]: > 100 µM | GI50 [56]: 5.53 µM | TGI [56]: > 100 µM
